Values of other authors, collected in patent publication US20240238336A1, “COPPER NANOCLUSTERS, METHODS FOR OBTAINING SAME AND THE USE THEREOF IN THE TREATMENT OF MENKES DISEASE” (priority 2021, published 2024).

Test system: Menkes syndrome
Conditions: child; daily subcutaneous injections for two and a half years

## N[C@@H](Cc1c[nH]cn1)C(=O)O.[Cu] [copper histidine]
  development: continued to manifest severe developmental delays
  epilepsy crises: epilepsy crises were eliminated
  pigmentation of skin and hair: improved pigmentation of the skin and hair
